Results from US12509460B2 (Skyhawk Therapeutics, Inc., priority 2019, dated 2025).
Where two headings read alike, the source gives them in different places.

Key:
[1] = Quantitative splicing assay (HTT), qPCR; assay type: cell-based, human; details: Homo sapiens, GM04724, 24 h, GM04724 lymphoblasts, read-out: HTT Splicing: E49-50 EC50
In short: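 Patient lymphoblasts (50,000 cells/well) dosed immediately after plating for 24 h at 2.5 uM to 0.15 nM in 0.1% DMSO. Lysed, cDNA made directly from cells, and inclusion of the intron 49 cryptic exon quantified by TaqMan qPCR.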

[2] = system: mHTT protein in GM04724 (CAG 70/20) Huntington's disease patient lymphoblast cells; test: mHTT protein assay, 2B7-MW1 assay via Mesoscale Discovery (MSD); assay type: cell-based, human
In short: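 Patient lymphoblasts treated 48 h with compound from 10 μM to 0.6 nM. mHTT quantified by MSD 2B7-MW1 immunoassay, whose signal depends on polyQ expansion and HTT size. Viability measured on a replicate plate by CellTiter Glo.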

[3] = system: SMN FL and SMN Δ7 in spinal muscular atrophy (SMA) patient fibroblasts (GM03813, Coriell); test: Quantitative splicing assay (SMN), qPCR; assay type: cell-based, human; details: read-out: SMN2 Splicing FL EC50
Procedure: Spinal muscular atrophy (SMA) patient fibroblasts (GM03813, Coriell) are plated in 96-well plates at 50,000 cells/well. […] Treated cells are lysed and cDNA synthesized using the Fast Advanced Cells-to-Ct kit (Thermofisher A35378) according to the manufacturer's instructions. 2 μL of each cDNA are used in qPCR reactions. […] Reactions are run in a Quant Studio 6 qPCR instrument with default settings.

[4] = system: SMN protein in spinal muscular atrophy (SMA) patient fibroblasts (GM03813, Coriell); test: SMN protein assay, Mesoscale Discovery (MSD); assay type: cell-based, human; details: for EC50: read-out: SMN2 protein EC50
In short: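 SMA patient fibroblasts (GM03813) seeded at 7000 cells/well and exposed to compound at 2.5 μM to 0.6 nM for 48 hours. Lysates assayed for SMN by MSD immunoassay, with absolute SMN amount calculated from a per-plate SMN standard curve (1 μg/ml to 19.5 pg/ml).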

MDR1 (P-gp) = test: Blood-brain-barrier (BBB) penetration potential via MDCK-MDR1 permeability assay; details: dog; for Papp A→B at 120 min, 5 μM: MDCK-MDR1, pH 7.4, MDCK-MDR1: Papp A-B; for Papp B→A at 120 min, 5 μM: MDCK-MDR1, pH 7.4, MDCK-MDR1: Papp B-A
[5] = system: MDR1-MDCK cell monolayers; test: as above
MDR1 = test: as above; details: dog, MDCK-MDR1, pH 7.4, MDCK-MDR1: Efflux
[6] = GM04724 (CAG 70/20) Huntington's disease patient lymphoblasts
[7] = Homo sapiens, Fibroblast, 24 h, SMA patient fibroblasts (GM03813), 24 h
[8] = SMA patient fibroblasts (GM03813), 48 hours
[9] = GM04724 Huntington's disease patient lymphoblasts
[10] = Homo sapiens, Fibroblast, 24 h, SMA patient fibroblasts GM03813, 24 h, qPCR
[11] = SMA patient fibroblasts GM03813, 48 hours, MSD

| SMILES | EC50 ([1]; qPCR) [nM] | EC50 [2, 9] [nM] | EC50 [3, 10] [nM] | EC50 [4, 11] [nM] | Papp A→B at 120 min, 5 μM (MDR1 (P-gp); A-B direction) [×10⁻⁶ cm/s] | Papp B→A at 120 min, 5 μM (MDR1 (P-gp); B-A direction) [×10⁻⁶ cm/s] | MDCK-MDR1: % Recov A-B ([5]; A-B direction) [%] | MDCK-MDR1: % Recov B-A ([5]; B-A direction) [%] | efflux ratio at 120 min, 5 μM (MDR1; efflux ratio) | further results |
| --- | --- | --- | --- | --- | --- | --- | --- | --- | --- | --- |
| Cc1nc2cc(-c3ccc(N(C)[C@H]4C[C@@H]5CC[C@H]([C@H]4F)N5C)nn3)c(O)cc2c(=O)n1C [Compound 105B, 7-(6-(((1R,2R,3S,5S)-2-fluoro-8-methyl-8-azabicyclo[3.2.1]octan-3-yl)(methyl)amino)pyridazin-3-yl)-6-hydroxy-2,3-dimethylquinazolin-4(3H)-one] |  |  |  |  |  |  |  |  |  | EC50 [1]: 51 to 100 nM; EC50 [2, 6]: 16 to 50 nM; EC50 [3, 7]: 101 to 500 nM; SMN2 protein EC50 [4, 8]: E (501 ≤ E ≤ 10.000); Papp A→B at 120 min, 5 μM (MDR1 (P-gp); A-B): 1.28 ×10⁻⁶ cm/s; Papp B→A at 120 min, 5 μM (MDR1 (P-gp); B-A): 64.3 ×10⁻⁶ cm/s; MDCK-MDR1: % Recov A-B ([5]; A-B): 114%; MDCK-MDR1: % Recov B-A ([5]; B-A): 119%; efflux ratio at 120 min, 5 μM (MDR1): 50 |
| CN(c1ccc(-c2ccc(-c3cnccn3)cc2O)nn1)[C@@H]1C[C@H]2CCC[C@H](N2)[C@@H]1F [Compound 24A, 2-(6-(((1S,2S,3R,5R)-2-fluoro-9-azabicyclo[3.3.1]nonan-3-yl)(methyl)amino)pyridazin-3-yl)-5-(pyrazin-2-yl)phenol] | 51 to 100 | 51 to 100 | 101 to 500 | 0.01 to 15 | 4.73 | 61.3 | 79 | 90 | 13 |  |
| CN(c1ccc(-c2cc(F)c(-n3ccnn3)cc2O)nn1)[C@H]1C[C@@H]2CC[C@@H](N2)[C@H]1F [Compound 52B, 4-fluoro-2-(6-(((1R,2R,3S,5S)-2-fluoro-8-azabicyclo[3.2.1]octan-3-yl)(methyl)amino)pyridazin-3-yl)-5-(1H-1,2,3-triazol-1-yl)phenol] | 16 to 50 | 0.01 to 15 | 16 to 50 | 0.01 to 15 | 7.44 | 54.4 | 97 | 90 | 7 |  |
| CN(c1ccc(-c2ccc(-n3nccn3)cc2O)nn1)[C@@H]1C[C@H]2CC[C@H](N2)[C@@H]1F [Compound 90A, 2-(6-(((1S,2S,3R,5R)-2-fluoro-8-azabicyclo[3.2.1]octan-3-yl)(methyl)amino)pyridazin-3-yl)-5-(2H-1,2,3-triazol-2-yl)phenol] | 0.01 to 15 | 0.01 to 15 | 0.01 to 15 | 0.01 to 15 | 6.97 | 22.5 | 41 | 69 | 3 |  |
| Cn1cnc2cc(-c3ccc(N(C4CC4)[C@H]4C[C@@H]5CC[C@@H](N5)[C@H]4F)nn3)c(O)cc2c1=O [Compound 56B, 7-(6-(cyclopropyl((1R,2R,3S,5S)-2-fluoro-8-azabicyclo[3.2.1]octan-3-yl)amino)pyridazin-3-yl)-6-hydroxy-3-methylquinazolin-4(3H)-one] | 0.01 to 15 | 0.01 to 15 | 16 to 50 |  | 1.12 | 51.2 | 96 | 97 | 46 | SMN2 protein EC50 [4, 11]: E (501 ≤ E ≤ 10.000) |
| CN(c1ccc(-c2ccc(-c3ccccn3)cc2O)nn1)[C@H]1C[C@@H]2CCC[C@@H](N2)[C@H]1F [Compound 23B, 2-(6-(((1R,2R,3S,5S)-2-fluoro-9-azabicyclo[3.3.1]nonan-3-yl)(methyl)amino)pyridazin-3-yl)-5-(pyridin-2-yl)phenol] | 16 to 50 | 16 to 50 | 16 to 50 | 0.01 to 15 | 3.17 | 48.2 | 68 | 98 | 15 |  |
| CN(c1ccc(-c2ccc(-c3ccn(C)n3)cc2O)nn1)[C@@H]1C[C@H]2CC[C@H](N2)[C@@H]1F (single isomer, unassigned) [Compound 36A] | 16 to 50 | 16 to 50 | 16 to 50 | 0.01 to 15 | 3.68 | 38.6 | 68 | 82 | 10 |  |
| CN(c1ccc(-c2cc3cnccc3cc2O)nn1)[C@@H]1C[C@H]2CC[C@H](N2)[C@@H]1F (single isomer, unassigned) [Compound 7A] | 16 to 50 | 0.01 to 15 |  | 0.01 to 15 | 3.31 | 20.1 | 65 | 75 | 6 | EC50 ([3]; SMA patient fibroblasts GM03813, 24 h, qPCR): 16 to 50 nM |
| Cc1cnc(-c2ccc(-c3ccc(N(C)[C@H]4C[C@@H]5CCC[C@@H](N5)[C@H]4F)nn3)c(O)c2)o1 [Compound 16B, 2-(6-(((1R,2R,3S,5S)-2-fluoro-9-azabicyclo[3.3.1]nonan-3-yl)(methyl)amino)pyridazin-3-yl)-5-(5-methyloxazol-2-yl)phenol] | 0.01 to 15 | 16 to 50 | 16 to 50 | 0.01 to 15 | 1.16 | 18.7 | 24 | 26 | 16 |  |
| CN(c1ccc(-c2ccc(-c3ccn(C)n3)cc2O)nn1)[C@H]1C[C@@H]2CC[C@@H](N2)[C@H]1F (single isomer, unassigned) [Compound 36B] | 0.01 to 15 | 0.01 to 15 | 0.01 to 15 | 0.01 to 15 | 5.87 | 41.8 | 72 | 79 | 7 |  |
| CN(c1ccc(-c2cc3ncccc3cc2O)nn1)[C@H]1C[C@@H]2CC[C@@H](N2)[C@H]1F [Compound 73B, 7-(6-(((1R,2R,3S,5S)-2-fluoro-8-azabicyclo[3.2.1]octan-3-yl)(methyl)amino)pyridazin-3-yl)quinolin-6-ol] | 0.01 to 15 | 16 to 50 | 0.01 to 15 | 16 to 50 | 3.38 | 55.1 | 72 | 72 | 16 |  |
| CN(c1ccc(-c2cc3c(=O)n(C)ccc3cc2O)nn1)[C@@H]1C[C@H]2CC[C@@H]([C@@H]1F)N2C [Compound 98A, 7-(6-(((1S,2S,3R,5R)-2-fluoro-8-methyl-8-azabicyclo[3.2.1]octan-3-yl)(methyl)amino)pyridazin-3-yl)-6-hydroxy-2-methylisoquinolin-1(2H)-one] |  |  |  |  |  |  |  |  |  | EC50 [1]: 101 to 500 nM; EC50 [2, 6]: 101 to 500 nM; EC50 [3, 7]: 101 to 500 nM; EC50 [4, 8]: 16 to 50 nM; Papp A→B at 120 min, 5 μM (MDR1 (P-gp); A-B): 4.11 ×10⁻⁶ cm/s; Papp B→A at 120 min, 5 μM (MDR1 (P-gp); B-A): 64.7 ×10⁻⁶ cm/s; MDCK-MDR1: % Recov A-B ([5]; A-B): 86%; MDCK-MDR1: % Recov B-A ([5]; B-A): 105%; efflux ratio at 120 min, 5 μM (MDR1): 16 |
| CN(c1ccc(-c2cc3occc(=O)c3cc2O)nn1)[C@@H]1C[C@H]2CC[C@H](N2)[C@@H]1F [Compound 43A, 7-(6-(((1S,2S,3R,5R)-2-fluoro-8-azabicyclo[3.2.1]octan-3-yl)(methyl)amino)pyridazin-3-yl)-6-hydroxy-4H-chromen-4-one] | 51 to 100 | 16 to 50 | 16 to 50 | 0.01 to 15 | 2.14 | 23.2 | 64 | 58 | 11 |  |
